In patent US7160902B2, “Amide derivatives and methods of their use” (Adolor Corporation, priority 2003, dated 2007):

What was measured:
[1] = target: T1, cloned human κ opioid receptor (Homo sapiens, UniProt P41145); assay: In vitro binding assay, inhibition of [3H]diprenorphine binding, κ receptor; conditions: [3H]diprenorphine displacement; read-out: Ki against the human κ receptor
T1 construct: expressed in transfected cells
Protocol: (§1) The potencies of the compounds of the invention were determined by testing the ability of a range of concentrations of each compound to inhibit the binding of the non-selective opioid antagonist, [^3H]diprenorphine, to the cloned human μ, κ, and δ opioid receptors, expressed in separate cell lines. IC50 values were obtained by nonlinear analysis of the data using GraphPad Prism version 3.00 for Windows (GraphPad Software, San Diego). Ki values were obtained by Cheng-Prusoff corrections of IC50 values.
(§2) The receptor binding method was a modification of the method of K. Raynor et al. (Mol. Pharmacol. 1994, 45, 330–334). […] The filters were rinsed 4 times with 1 mL of cold 50 mM Tris HCl, pH 7.8 and radioactivity remaining on the filters determined by scintillation spectroscopy. Nonspecific binding was determined by the minimum values of the titration curves and was confirmed by separate assay wells containing 10 μM naloxone. Ki values were determined by Cheng-Prusoff corrections of IC50 values derived from nonlinear regression fits of 12 point titration curves using GraphPad Prism® version 3.00 for Windows (GraphPad Software, San Diego, Calif.).
(§3) To determine the equilibrium dissociation constant for the inhibitors (Ki), radioligand bound (cpm) in the presence of various concentrations of test compounds was measured. […]

[2] = target: T2, cloned human μ opioid receptor (Homo sapiens, UniProt P35372); assay: In vitro binding assay, inhibition of [3H]diprenorphine binding, μ receptor; conditions: κ versus μ
T2 construct: expressed in transfected cells
Protocol: as §1, §2, §3

[3] = target: T3, cloned human δ opioid receptor (Homo sapiens, UniProt P41143); assay: In vitro binding assay, inhibition of [3H]diprenorphine binding, δ receptor; conditions: κ versus δ
T3 construct: expressed in transfected cells
Protocol: as §1, §2, §3

cloned human κ receptors = target: T4, cloned human κ receptors (Homo sapiens, UniProt P41145); assay: Stimulation of [35S]GTPγS binding to membranes; format: biochemical
T4 construct: expressed in transfected cells
Protocol: The potencies of the agonists were assessed by their abilities to stimulate [^35S]GTPγS binding to membranes containing the cloned human κ receptors.
To determine the EC50 value, which was the concentration to give half-maximal stimulation of [^35S]GTPγS binding, the amount of [^35S]GTPγS bound in the presence of various concentrations of agonists was measured. The EC50 value was then determined.

[4] = system: formalin-induced flinching; assay: In vivo formalin-induced nociception assay; design: species or system male Sprague-Dawley rats; conditions: dose of 300 μg, i.paw
Text: Administration of formalin into the paw results in a localized inflammation and a pain response that is moderate in intensity and continuous in duration. Unlike many other assays of nociception, the formalin assay measures tonic pain that is a result of tissue injury, and therefore is a model that is more relevant to clinical pain states in humans (See Tjolsen et al., Pain 51: 5–17, 1992). In the rat the response to formalin-induced pain consists of spontaneous flinching behavior, characterized by paw lifting and paw shaking, and a rapid vibration of the paw after drawing it under the body. […] The early or acute phase lasts from 0–5 minutes post-formalin and is followed by a quiescent period lasting approximately 15 minutes. The tonic phase occurs from 20–35 minutes following formalin injection and is the interval where the number of flinching responses is maximal. […]
Inflammation is induced by subcutaneous injection of […] of a 5% formalin solution into the dorsal surface of the right hind paw of male Sprague-Dawley rats weighing 70–90 g. Injections of drug are given into the dorsal surface of the paw prior to formalin injection, and flinching behavior is quantified by counting the number of responses that occur during the tonic phase of pain, lasting from 20–35 minutes after formalin injection. […]

[5] = system: acetic acid-induced writhing; assay: Acetic acid-induced writhing; format: in vivo, male CF-1 mice; conditions: Mus musculus, sc; administered subcutaneously; read-out: ED50, blocking of acetic acid-induced writhing
Protocol: Injection of acetic acid into the peritoneal cavity is used as the noxious stimulus, and the number of writhing responses that occur in response to acetic acid are counted in order to quantify the response to pain.
The writhing assay is adapted from the procedure originally described by Taber, et al. (J. Pharmacol. Exp. Ther. 169: 29–38, 1986), using male CF-1 mice weighing 20–25 g. Animals are treated with various doses of drugs prior to the administration of an i.p. injection of 0.6% acetic acid solution. Mice are then placed into observation chambers and the number of writhing responses, as defined by a full hind limb extension and retraction, are recorded.
The mean number of writhing responses is calculated for vehicle-treated control mice, and the percent inhibition (% I) of writhing is calculated for each mouse that is treated with drug using the following formula: % I=100×(mean control writhing responses−individual test responses)(mean control writhing responses) (f) Hyperalgesia Induced by Tape Stripping

T4 sequence (P41145 whole entry): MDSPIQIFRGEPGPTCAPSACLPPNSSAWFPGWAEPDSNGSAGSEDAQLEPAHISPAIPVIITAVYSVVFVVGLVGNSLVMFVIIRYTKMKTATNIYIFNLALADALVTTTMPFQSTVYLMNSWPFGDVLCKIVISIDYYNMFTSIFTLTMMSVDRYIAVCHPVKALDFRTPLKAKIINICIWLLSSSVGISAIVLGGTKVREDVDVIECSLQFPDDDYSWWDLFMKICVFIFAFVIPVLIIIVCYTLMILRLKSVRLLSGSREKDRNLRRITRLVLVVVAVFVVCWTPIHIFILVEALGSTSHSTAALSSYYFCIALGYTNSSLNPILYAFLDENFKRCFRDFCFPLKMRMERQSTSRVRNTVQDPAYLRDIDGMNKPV
T3 sequence (P41143 whole entry): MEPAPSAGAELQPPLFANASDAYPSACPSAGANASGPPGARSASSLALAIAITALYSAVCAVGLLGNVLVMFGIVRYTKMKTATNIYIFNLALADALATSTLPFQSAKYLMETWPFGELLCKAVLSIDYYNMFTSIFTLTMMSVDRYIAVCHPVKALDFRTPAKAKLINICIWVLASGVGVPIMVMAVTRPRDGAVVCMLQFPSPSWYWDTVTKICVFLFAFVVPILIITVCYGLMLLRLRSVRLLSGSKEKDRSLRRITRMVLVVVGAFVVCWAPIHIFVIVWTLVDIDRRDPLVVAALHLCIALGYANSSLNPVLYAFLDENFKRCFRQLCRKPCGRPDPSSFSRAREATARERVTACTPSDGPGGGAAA
T2 sequence (P35372 whole entry): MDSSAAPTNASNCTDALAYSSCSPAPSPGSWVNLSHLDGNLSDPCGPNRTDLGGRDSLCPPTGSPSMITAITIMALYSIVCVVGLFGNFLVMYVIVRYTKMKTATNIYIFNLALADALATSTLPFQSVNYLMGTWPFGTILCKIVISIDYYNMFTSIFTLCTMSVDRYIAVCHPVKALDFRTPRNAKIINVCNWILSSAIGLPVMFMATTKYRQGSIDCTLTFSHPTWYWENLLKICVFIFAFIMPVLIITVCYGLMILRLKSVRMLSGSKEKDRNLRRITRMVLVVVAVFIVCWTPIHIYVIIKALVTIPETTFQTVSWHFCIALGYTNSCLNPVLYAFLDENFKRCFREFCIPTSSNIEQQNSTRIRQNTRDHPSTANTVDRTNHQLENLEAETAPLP
T1 sequence (P41145 whole entry): as the sequence (P41145 whole entry) above

CN(C(=O)CNc1ccccc1)[C@H](CN1CC[C@H](O)C1)c1ccccc1 [Example 1, N-{2-[(S)-3-Hydroxy-pyrrolidin-1-yl]-(S)-1-phenyl-ethyl}-N-methyl-2-phenylamino-acetamide]
Ki [1]: 0.17 nM
selectivity versus the human μ receptor [2]: > 100 ×
selectivity versus the human δ receptor [3]: > 100 ×
functional activity at κ receptor (cloned human κ receptors): agonist
EC50 (cloned human κ receptors; half-maximal stimulation of [35S]GTPγS binding, read-out: EC50 (agonist)): 0.05 nM
% A (percent antagonism of formalin-induced flinching) [4]: 96.2%
ED50 [5]: 0.017 mg/kg
